Each compound was assayed on NLRP3 inflammasome (assay: Caspase-1 activation in bone marrow-derived macrophages treated with LPS and ATP (immunoblot)). Conditions: primary mouse BMDM; LPS and ATP stimulation.
Assay type: cell-based
Method: Western blotting. Cells and tissue were homogenized in RIPA buffer (Sigma-Aldrich) with protease and phosphatase inhibitors (Roche) or lysed directly in Laemmli buffer. Protein concentration was determined using Pierce BCA Protein Assay Kit (Thermo Fisher Scientific). Equal quantities of protein (10-50 μg) prepared in Laemmli buffer were resolved by SDS-PAGE on NOVEX® Tris-Glycine Gels (Invitrogen), or MINI-PROTEAN® TGX™ Precast Protein Gels (Bio-Rad Laboratories, Inc., Hercules, Calif., United States of America) and transferred onto Immobilon-FL PVDF membranes (0.2 or 0.45 μm; MilliporeSigma, Burlington, Mass., United States of America). The transferred membranes were blocked in ODYSSEY® Blocking Buffer (PBS) for 1 hour at room temperature and then incubated with primary antibody at 4° C. overnight. Immunoreactive bands were visualized using species-specific secondary antibodies conjugated with IRDYE®. The blot images were captured on ODYSSEY® imaging systems. […]
With `O=C1Nc2ccc(Cl)cc2[C@@](C#CC2CC2)(C(F)(F)F)O1` [EFV, efavirenz] the “caspase-1 activation / NLRP3 inflammasome activation” value was “did not inhibit NLRP3 inflammasome activation”.
With `CC(C)Nc1cccnc1N1CCN(C(=O)c2cc3cc(NS(C)(=O)=O)ccc3[nH]2)CC1` [DLV, delavirdine] the “caspase-1 activation / NLRP3 inflammasome activation” value was “did not inhibit NLRP3 inflammasome activation”.
With `Cc1ccnc2c1NC(=O)c1cccnc1N2C1CC1` [NVP, nevirapine] the “caspase-1 activation / NLRP3 inflammasome activation” value was “does not inhibit”.

— patent US20210348164A1, “ENDOGENOUS CYTOPLASMIC ALU COMPLEMENTARY DNA IN AGE-RELATED MACULAR DEGENERATION” (University of Virginia Patent Foundation, priority 2018, published 2021)
